US6984619B1, “Method for protection against tumor metastasis formation” (Arch Development Corporation, priority 1999, dated 2006)
Entries after “also recorded” stand apart in the source; their conditions may differ. Where two headings read alike, the source gives them in different places. One block for each molecule: values may come before it.

Key:
[1] = biological target: T1, MMP-2 (Homo sapiens, UniProt P08253); assay: Gelatin zymography of medium from treated U251 glioma cells, MMP-2; format: cell-based; settings: for reduction of MMP-2 activity/secretion: 10 mM; for reduction of MMP-2 activity/secretion / inhibition of MMP-2 activity/secretion: 24 h
T1 construct: Medium was isolated at the indicated times, centrifuged at 1000 rpm for 5 min to remove debris; endogenous in cells; host or cells: U251 human glioma cells (serum-free conditioned medium)
T1 sequence (P08253 110-660): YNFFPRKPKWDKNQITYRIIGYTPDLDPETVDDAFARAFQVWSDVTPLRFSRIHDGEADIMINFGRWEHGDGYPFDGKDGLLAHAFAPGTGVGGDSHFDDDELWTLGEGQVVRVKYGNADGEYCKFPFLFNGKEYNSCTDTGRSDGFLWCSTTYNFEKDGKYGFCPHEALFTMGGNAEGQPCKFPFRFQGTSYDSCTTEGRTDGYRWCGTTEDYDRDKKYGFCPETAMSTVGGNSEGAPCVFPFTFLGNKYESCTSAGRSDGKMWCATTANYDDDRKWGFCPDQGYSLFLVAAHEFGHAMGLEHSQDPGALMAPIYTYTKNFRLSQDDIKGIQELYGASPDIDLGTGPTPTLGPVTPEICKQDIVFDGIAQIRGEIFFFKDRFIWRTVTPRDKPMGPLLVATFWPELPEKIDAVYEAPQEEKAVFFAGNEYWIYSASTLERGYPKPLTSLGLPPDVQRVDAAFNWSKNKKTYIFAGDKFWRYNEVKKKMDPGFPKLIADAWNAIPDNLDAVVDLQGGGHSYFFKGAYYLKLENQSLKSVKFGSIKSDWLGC
Procedure: (§1) U251 Glioma Cells were grown to confluence in 6-well plates. Medium was removed, the cells washed twice with 37° C. PBS, and serum-free medium added. The cells were treated as follows: • Control—24 h, 48 h 72 h • 40 μM SH—24 h, 48 h 72 h (continuous exposure) • 10 ng/ml TNFα—24 h, 48 h, 72 h (continuous exposure). Medium was isolated at the indicated times, centrifuged at 1000 rpm for 5 min to remove debris, and stored at −80° C. until use. Protein was quantitated using the Bradford method. 252 ng of protein was loaded on 10% zymogram (gelatin) gels (Novex, San Diego, Calif.) and electrophoresed at 125 volts for 90 min in Tris-Glycine SDS buffer. After running, the gels were incubated in zymogram renaturing buffer (100 ml) for 30 min at room temperature with gentle agitation. The buffer was removed and fresh zymogram developing buffer (100 ml) added and the gels incubated at 37° C. overnight with gentle agitation. The following day the gels were stained with 0.5% coomassie blue R-250 for 30 min, and destained. Areas of protease activity show up as clear bands. This assay will detect MMP-2 and MMP-9.
(§2) Same protocol as above. Treatment conditions were as follows: • Control—24 h • 4 mM SH—24 h (continuous exposure) • 10 mM L-NAC—24 h (continuous exposure) • 10 mM L-NAC—24 h (continuous exposure) • 10 mM Captopril—24 h (continuous exposure) • 50 mM EDTA—24 h (chelator) • 4 mM SH+50 mM EDTA—24 h • 10 mM L-NAC+50 mM EDTA—24 h • 10 mM D-NAC+50 mM EDTA—24 h • 10 mM Captopril+50 mM EDTA—24 h • 40 μM SH—24 h • 10 ng/ml TNFα—24 h

[2] = biological target: T2, MMP-9 (Homo sapiens, UniProt P14780); assay: Gelatin zymography of medium from treated U251 glioma cells, MMP-9; format: cell-based; settings: for reduction of MMP-9 activity/secretion: 10 mM
T2 construct: Medium was isolated at the indicated times, centrifuged at 1000 rpm for 5 min to remove debris; endogenous in cells; host or cells: U251 human glioma cells (serum-free conditioned medium)
Procedure: as §1, §2

[3] = test system: MnSOD gene expression; assay: MnSOD gene expression in glioma cells (Northern blot); format: cell-based, human
Description: FIG. 6. Effect of Amifostine on MnSOD Expression. Kinetics of manganese superoxide dismutase (MnSOD) gene expression induced in human glioma tumor cells as a function of time by WR1065, the active form of amifostine, are presented for comparison. Also included in the upper right hand corner is a representative Northern blot used to quantitate gene expression. Gene expression was induced over 3-fold as compared to untreated controls.
As previously discussed, manganese superoxide dismutase (MnSOD) has been identified as important anti-oxidant gene whose expression reduces the malignant/metastatic phenotype of cancer cells (Safford et al., 1995). Tumor cells are relatively lower in MnSOD than are normal cells. Increasing MnSOD in tumor cells causes them to loose their ability to be metastatic. As described in FIG. 6, exposure of tumor cells to WR-1065 leads to enhanced gene expression of MnSOD. […] The peak level of MnSOD expression was almost twice that observed in normal human endothelial cells exposed to WR-1065.

[4] = test system: SA-NH; assay: Spontaneous lung metastasis assay, SA-NH sarcoma implanted i.m., leg amputated; format: in vivo, C3Hf/Kam mice; settings: for probability of developing spontaneous metastases (FIG. 1): 200, 100 or 50 mg/kg i.p., greater effects at the lower doses
Procedure: (§3) Animal system and experimental tumors. Experiments have been performed using C3Hf/Kam mice obtained from the University of Texas M.D. Anderson Cancer Center, Houston, Tex. Male mice were at least 110 days of age at the initiation of studies. Studies involving tumors included the use of two syngeneic adenocarcinomas (MCa-K and OCa-I,) and one sarcoma (SA-NH). Tumors were grown in the hind legs or flanks of animals. Single-cell suspensions of 5×10^5 viable tumor cells prepared from excised tumors were injected into the hind leg (spontaneous metastasis assay) or the lateral tail veins (artificial metastasis assay) of mice to develop pulmonary nodules (D. J. Grdina et al., 1974; D. J. Grdina et al., 1977; N. Suzuki et al., 1977; D. J. Grdina et al., 1978). For the spontaneous metastases studies, each thiol was administered on the first day following tumor cell inoculation, and then every third day until the tumor reaches 8.0 to 8.5 mm in diameter. At that time the tumor bearing leg is amputated and thiols were administered two and four days later. Twenty-three days following amputation, the animals were sacrificed, their lungs removed, fixed in Bouin's solution, and lung metastases counted. For the artificial metastases studies, mice were sacrificed 14 days after tumor cell inoculation and lung metastases counted (D. J. Grdina et al., 1974; D. J. Grdina et al., 1977; N. Suzuki et al., 1977; D. J. Grdina et al., 1978).
This tumor is p53 wild-type (R. Schimming et al., 1999). A tumor cell suspension containing 5×10^5 viable SA-NH cells was implanted i.m. into the right thighs of three month old male C3Hf/Kam mice. When tumors grew to 8 to 8.5 mm in diameter, each tumor bearing leg was amputated and the animals were then sacrificed 23 days later to assess both the incidence of mice developing metastases and numbers of spontaneous lung metastases formed per mouse. To assess the effects of amifostine on this process, different groups of mice were injected i.p. with 200, 100, or 50 mg/kg of WR-2721 according to the following protocol: drug administration on the first day following inoculation with tumor cells and then every third day until amputation with a final injection 2 days later.
Presented in Table 1 is a comparison of the effects of amifostine on the mean number of spontaneous metastases formed in the lungs of mice. Table 2 presents data regarding the effects of amifostine on affecting the incidence of metastasis formation using these tumor systems. The level of significance was determined using a t-test for binomial proportions (Walpole and Myers, 1978). Treatment of animals with 50 mg/kg of amifostine reduced the incidence of spontaneous metastasis development by these tumors at a level of significance of p<0.025.

[5] = test system: MCa-K; assay: Spontaneous lung metastasis assay, MCa-K adenocarcinoma; format: in vivo, C3Hf/Kam mice; settings: 50 mg/kg WR-2721, MCaK tumor
Procedure: as §3, with “For the spontaneous metastases studies, each thiol was administered on the first day following tumor cell inoculation, and then every third day until the tumor reaches 8.0 to 8.5 mm in diameter. At that time the tumor bearing leg is amputated and thiols were administered two and four days later.” left out
(§4) Presented in Table 1 is a comparison of the effects of amifostine on the mean number of spontaneous metastases formed in the lungs of mice. […] The level of significance was determined using a t-test for binomial proportions (Walpole and Myers, 1978). […]

[6] = test system: OCa-I; assay: Spontaneous lung metastasis assay, OCa-I adenocarcinoma; format: in vivo, C3Hf/Kam mice; settings: 50 mg/kg WR-2721, OCa tumor
Procedure: as §3, with “For the spontaneous metastases studies, each thiol was administered on the first day following tumor cell inoculation, and then every third day until the tumor reaches 8.0 to 8.5 mm in diameter. At that time the tumor bearing leg is amputated and thiols were administered two and four days later.” left out
as §4

[7] = test system: angiostatin; assay: Blood angiostatin by Western blot in mice with or without SA-NH tumor; format: in vivo, C3Hf/Kam mice
Procedure: FIG. 2. SA-NH Murine Tumor. Tumor cells (3–5×10^5) were injected into right leg muscle of C3Hf/Kam male mice. Each group consisted of 5 mice. Mice were injected i.p. with 50 mg/kg of Amifostine (Ami) one day after innoculation with viable tumor and every third day (4 times) until amputation (Amp). When tumors grew to 8–9 mm in diameter, the tumor-bearing leg was amputated. Blood was collected using a 1 ml tuberculine syringe rinsed with EDTA (100 mg/ml) or heparin and placed in an EDTA-coated microcentrifuge tube and centrifuged at 250 rpm for 10 min. The resulting supernatants were collected and frozen at −70° C. until assayed for angiostatin by Western blot analysis.
Low non-cytoprotective doses of Amifostine, in the range of 50 to 100 mg/kg, were administered every other day for six days to C3Hf/Kam mice bearing SA-NH sarcomas and twice thereafter following the surgical removal of the tumors. […] Amifostine or its free thiol form designated WR-1065 was further evaluated regarding three processes implicated in the metastatic process. (FIG. 2).

[8] = Blood level of WR-2721 in mice; format: in vivo; settings: 400 mg/kg dose
Procedure: It is also understood that uptake after is species and organ/tissue dependent. The applicable conversion factors and physiological assumptions to be made concerning uptake and concentration measurement are well-known and would permit those of skill in the art to convert one concentration measurement to another and make reasonable comparisons and conclusions regarding the doses, afficacies and results described herein. By way of example only, in mice given 100 mg/kg WR-2721, 30-minute blood levels are reported at 49 micrograms/ml or 0.23 mM. Accordingly, a 400 mg/kg dose would correspond to a concentration of WR-2721 of about 1.0 mM. Likewise, a human subject given about 740 mg/m^2 of WR-2721 (by IV infusion) would have an initial plasma level at about 100 micromol/liter or 0.1 mM.

[9] = C3H mouse system; cited from earlier work
[10] = test system: hprt locus in splenocytes; settings: mice; cited from earlier work
[11] = cited from earlier work
[12] = TNFα 10 ng/ml, continuous exposure

T2 sequence (P14780 94-707): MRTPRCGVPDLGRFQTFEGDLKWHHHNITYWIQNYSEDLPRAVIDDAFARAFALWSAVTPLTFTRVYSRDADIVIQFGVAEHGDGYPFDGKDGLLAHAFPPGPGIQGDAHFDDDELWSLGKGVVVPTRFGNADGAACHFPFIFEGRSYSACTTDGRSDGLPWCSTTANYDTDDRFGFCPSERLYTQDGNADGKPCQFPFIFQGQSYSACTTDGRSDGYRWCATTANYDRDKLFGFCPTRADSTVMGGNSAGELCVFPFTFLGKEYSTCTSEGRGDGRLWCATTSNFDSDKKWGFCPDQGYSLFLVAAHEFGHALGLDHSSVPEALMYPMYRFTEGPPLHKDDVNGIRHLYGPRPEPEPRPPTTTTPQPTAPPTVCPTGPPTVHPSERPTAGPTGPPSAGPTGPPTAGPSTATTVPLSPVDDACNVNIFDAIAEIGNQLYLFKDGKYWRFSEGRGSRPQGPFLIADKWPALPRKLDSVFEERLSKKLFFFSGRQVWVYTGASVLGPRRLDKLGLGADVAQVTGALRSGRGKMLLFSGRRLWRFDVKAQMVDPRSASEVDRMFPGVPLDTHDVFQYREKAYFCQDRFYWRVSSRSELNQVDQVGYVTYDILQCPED

Molecule: C[C@H](CS)C(=O)N1CCC[C@H]1C(=O)O [Captopril]
- reduction of MMP-2 activity/secretion [1]: completely inhibited
- reduction of MMP-9 activity/secretion ([2]; 24 h): completely inhibited

Molecule: CC(=O)N[C@H](CS)C(=O)O [D-NAC]
- reduction of MMP-2 activity/secretion [1]: 74%
- reduction of MMP-9 activity/secretion ([2]; 24 h): 85%

Molecule: O=C(O)CN(CCN(CC(=O)O)CC(=O)O)CC(=O)O [EDTA]
- inhibition of MMP-2 activity/secretion ([1]; 50 mM EDTA): completely inhibiting; also recorded: completely inhibited; also recorded: completely blocked
- inhibition of MMP-9 activity/secretion ([2]; 50 mM EDTA, 24 h): completely inhibiting; also recorded: completely inhibited; also recorded: completely blocked

Molecule: CC(=O)N[C@@H](CS)C(=O)O [L-NAC, N-acetyl-L-cysteine]
- reduction of MMP-2 activity/secretion [1]: 69%
- reduction of MMP-9 activity/secretion ([2]; 24 h): 73%

Molecule: Tumor Necrosis Factor alpha [TNFα]
- suppression of MMP-2 secretion at 48 h and 72 h [1, 12]: still able to suppress
- MMP-9 activity at 48 h and 72 h [2, 12]: continued to cause enhanced activity

The next lines start with results.

- ability to reduce MMP-2 secretion at 48 h and 72 h ([1]; 40 μM SH, continuous exposure): lost
- reduction of MMP-2 activity/secretion relative to control ([1]; 40 μM WR-1065 (SH), 24 h (b119 prints 45 h)): 45%
- MMP-2 activity, of control levels ([1]; 40 μM, 24 h exposure): 55%
- inhibition of MMP-2 activity/secretion ([1]; 4 mM WR-1065 (SH)): completely inhibiting
- inhibition of MMP-2 activity/secretion ([1]; 4 mM WR-1065 (SH), listed as SH): completely inhibited
- ability to affect MMP-9 activity at 48 h and 72 h ([2]; 40 μM SH, continuous exposure): lost
- reduction of MMP-9 activity relative to control ([2]; 40 μM WR-1065 (SH), 24 h): 5%
- inhibition of MMP-9 activity/secretion ([2]; 4 mM WR-1065 (SH), 24 h): completely inhibiting
- inhibition of MMP-9 activity/secretion ([2]; 4 mM WR-1065 (SH), 24 h, listed as SH): completely inhibited
Molecule: NCCCNCCS [WR-1065, 2-[(aminopropyl)amino]ethanethiol]
- peak level of MnSOD expression relative to normal human endothelial cells exposed to WR-1065 ([3]; U87 glioma cells versus normal human endothelial cells): almost twice
- MnSOD gene expression during an additional 12 h ([3]; human glioma U87 cells, 12 to 24 h): remained at that elevated level
- MnSOD gene expression enhanced ([3]; human glioma U87 cells, after 12 h): 2.5 fold
- MnSOD gene expression induced as compared to untreated controls ([3]; human glioma tumor cells, FIG. 6 legend): over 3 fold

- concentration of WR-2721 corresponding to dose [8]: about 1.0 mM
Molecule: NCCCNCCSP(=O)(O)O [WR-2721, S-2-(3-aminopropylamino)ethyl phosphorothioic acid]
- number of spontaneous metastases (mean ± s.e.) ([4]; 50 mg/kg WR-2721 i.p., lung metastases per mouse, Sa-NH tumor): 2.9 ± 1.1
- reduction in the development of spontaneous metastases in the lungs ([4]; 50 to 100 mg/kg every other day for six days and twice after surgical removal of tumor): four-fold
- probability of developing spontaneous metastases (FIG. 1) ([4]; listed as Amifostine): actually reduced it
- probability of developing spontaneous metastases (FIG. 1) ([4]; listed as amifostine): reduces the chances of developing spontaneous metastases
- number of spontaneous metastases (mean ± s.e.) [5]: 1.7 ± 1.3
- number of spontaneous metastases (mean ± s.e.) [6]: 0.5 ± 0.14
- enhancement of angiostatin levels found in control mice ([7]; Amifostine injections, 50 mg/kg i.p. (FIG. 2)): four-fold
- angiostatin level after removal of tumors ([7]; continued Amifostine treatment following tumor removal): equal to presurgery levels
- induction of angiostatin production ([7]; tumor-free and tumor-bearing mice (FIG. 2)): effective in inducing angiostatin production
- cytoprotection at doses below 100 mg/kg [9]: completely ineffective
- dose required for maximum cytoprotection [9]: 400 mg/kg
- doses at which the antimutagenic effect diminishes [10]: less than 10 mg/kg
- net charge ([11]; disulfide form): +4
- net charge ([11]; thiol form): +2
